According to paper PMC6476926, “Dichloro-Phenyl-Benzotriazoles: A New Selective Class of Human Respiratory Syncytial Virus Entry Inhibitors” (Frontiers in Chemistry, 2019):

Assays:
RSV = experiment: microbe, parasite or virus in culture; assay type: cell-based, Human Respiratory Syncytial Virus (RSV) strain A2; conditions: human respiratory syncytial virus, Vero 76, read-out: EC50 RSV
HIV-1IIIB = experiment: microbe, parasite or virus in culture; assay type: cell-based, Human Immunodeficiency Virus type-1 (HIV-1); conditions: Human immunodeficiency virus 1, MT4, read-out: EC50 HIV-1IIIB
BVDV = experiment: microbe, parasite or virus in culture; assay type: cell-based; conditions: Bovine viral diarrhea virus isolates and strains, MDBK, read-out: EC50 BVDV
YFV = experiment: microbe, parasite or virus in culture; assay type: cell-based; conditions: Yellow fever virus, BHK, read-out: EC50 YFV
Reo-1 = experiment: microbe, parasite or virus in culture; assay type: cell-based, Reovirus type-1 (Reo-1); conditions: Reovirus sp., BHK, read-out: EC50 Reo-1
CV-B5 = experiment: microbe, parasite or virus in culture; assay type: cell-based, Human Enterovirus B [coxsackie type B5 (CV-B5)]; conditions: Enterovirus B, CVB5, Vero 76, read-out: EC50 CV-B5
Sb-1, VSV, VV, HSV-1 = experiment: organism not typed; assay type: cell-based; conditions: Vero 76, read-out: EC50 Sb-1, VSV, VV, HSV-1
in vitro = conditions: cattle (Bos taurus)
[1] = Cytotoxicity, MTT method, BHK cells; conditions: Syrian hamster (Mesocricetus auratus)
[2] = Cytotoxicity, MTT method, MT-4 cells; conditions: human
[3] = Cytotoxicity, MTT method, Vero-76 cells; conditions: African green monkey (Cercopithecus aethiops)

| SMILES | EC50 (RSV) [µM] | EC50 (HIV-1IIIB) [µM] | EC50 (BVDV) [µM] | EC50 (YFV) [µM] | EC50 (Reo-1) [µM] | EC50 (CV-B5) [µM] | EC50 (Sb-1, VSV, VV, HSV-1) [µM] | melting point [°C] | CC50 (in vitro) [µM] | CC50 [1] [µM] | CC50 [2] [µM] | CC50 at 5 days [3] [µM] | CC50 ([1]; BHK cells (BHK-21, mock-infected)) [µM] | CC50 ([2]; MT-4 cells (mock-infected)) [µM] | CC50 [3] [µM] |
| --- | --- | --- | --- | --- | --- | --- | --- | --- | --- | --- | --- | --- | --- | --- | --- |
| O=C(Nc1ccc(-n2nnc3cc(Cl)c(Cl)cc32)cc1)c1ccc([N+](=O)[O-])cc1 [7e, N-[4-(5,6-dichloro-1H-benzo[d][1,2,3]triazol-1-yl)phenyl]-4-nitrobenzamide] | 13 | > 100 | > 100 | > 96 | > 96 | > 100 | > 100 | 238 to 240 | > 100 | 96 | > 100 | > 100 | – | – | – |
| O=C(Nc1ccc(-n2nnc3cc(Cl)c(Cl)cc32)cc1)c1ccc(Cl)cc1 [7f, N-[4-(5,6-dichloro-1H-benzo[d][1,2,3]triazol-1-yl)phenyl] 4-chlorobenzamide] | 8 | > 100 | > 100 | > 84 | > 84 | > 100 | > 100 | 234 to 236 | > 100 | 84 | > 100 | > 100 | – | – | – |
| O=C(Nc1ccc(-n2nnc3cc(Cl)c(Cl)cc32)cc1)c1ccc(C(F)(F)F)cc1 [7g, N-[4-(5,6-dichloro-1H-benzo[d][1,2,3]triazol-1-yl)phenyl]-4-(trifluoromethyl)benzamide] | 5 | > 100 | > 100 | > 100 | > 100 | > 90 | > 90 | > 290 | > 100 | > 100 | > 100 | 9 | – | – | – |
| N#Cc1ccc(C(=O)Nc2ccc(-n3nnc4cc(Cl)c(Cl)cc43)cc2)cc1 [7h, N-[4-(5,6-dichloro-1H-benzo[d][1,2,3]triazol-1-yl)phenyl] 4-cyanobenzamide] | 11 | > 100 | > 100 | > 100 | > 100 | > 100 | > 100 | 227 to 229 | > 100 | > 100 | > 100 | > 100 | – | – | – |
| O=C(Nc1ccc(-n2nc3cc(Cl)c(Cl)cc3n2)cc1)c1ccccc1 [8a, N-[4-(5,6-dichloro-2H-benzo[d][1,2,3]triazol-2-yl)phenyl]benzamide] | > 100 | > 100 | > 100 | > 100 | > 100 | > 100 | > 100 | > 290 | > 100 | > 100 | > 100 | > 100 | – | – | – |
| Cc1ccc(C(=O)Nc2ccc(-n3nc4cc(Cl)c(Cl)cc4n3)cc2)cc1 [8b, N-[4-(5,6-dichloro-2H-benzo[d][1,2,3]triazol-2-yl)phenyl]-4-methylbenzamide] | 27 | > 100 | > 100 | 73 | > 100 | > 100 | > 100 | 210 to 213 | > 100 | > 100 | > 100 | > 100 | – | – | – |
| COc1ccc(C(=O)Nc2ccc(-n3nc4cc(Cl)c(Cl)cc4n3)cc2)cc1 [8c, N-[4-(5,6-dichloro-2H-benzo[d][1,2,3]triazol-2-yl)phenyl]-4-methoxybenzamide] | > 100 | > 100 | > 100 | > 100 | > 100 | 14 | > 100 | 274 to 276 | > 100 | – | – | > 100 | > 100 | > 100 | – |
| O=C(Nc1ccc(-n2nc3cc(Cl)c(Cl)cc3n2)cc1)c1ccc([N+](=O)[O-])cc1 [8e, N-[4-(5,6-dichloro-2H-benzo[d][1,2,3]triazol-2-yl)phenyl]-4-nitrobenzamide] | 33 | > 100 | 4 | > 68 | > 68 | > 100 | > 100 | > 297 | > 100 | 68 | > 100 | > 100 | – | – | – |
| O=C(Nc1ccc(-n2nc3cc(Cl)c(Cl)cc3n2)cc1)c1ccc(Cl)cc1 [8f, N-[4-(5,6-dichloro-2H-benzo[d][1,2,3]triazol-2-yl)PHENYL] 4-chlorobenzamide] | 20 | > 100 | 60 | > 100 | > 100 | > 100 | > 100 | 268 to 270 | > 100 | > 100 | > 100 | 80 | – | – | – |
| O=C(Nc1ccc(-n2nc3cc(Cl)c(Cl)cc3n2)cc1)c1ccc(C(F)(F)F)cc1 [8g, N-[4-(5,6-dichloro-2H-benzo[d][1,2,3]triazol-2-yl)phenyl]-4-(trifluoromethyl)benzamide] | 50 | > 100 | 28 | > 100 | > 100 | > 100 | > 100 | 210 to 212 | > 100 | > 100 | > 100 | > 100 | – | – | – |
| N#Cc1ccc(C(=O)Nc2ccc(-n3nc4cc(Cl)c(Cl)cc4n3)cc2)cc1 [8h, N-[4-(5,6-dichloro-2H-benzo[d][1,2,3]triazol-2-yl)phenyl] 4-cyanobenzamide] | 60 | > 100 | 11 | > 100 | > 100 | > 100 | > 100 | 263 to 265 | > 100 | > 100 | > 100 | > 100 | – | – | – |
| CCNC(=O)Nc1ccc(-n2nc3cc(Cl)c(Cl)cc3n2)cc1 [10a, 1-[4-(5,6-dichloro-2H-benzo[d][1,2,3]triazol-2-yl)phenyl]-3-ethylurea] | > 100 | > 100 | > 100 | > 100 | > 100 | > 100 | > 100 | > 290 | > 100 | > 100 | > 100 | > 100 | – | – | – |
| CCCCNC(=O)Nc1ccc(-n2nc3cc(Cl)c(Cl)cc3n2)cc1 [10c, 1-[4-(5,6-dichloro-2H-benzo[d][1,2,3]triazol-2-yl)phenyl]-3-butylurea] | > 100 | > 100 | > 100 | > 100 | > 100 | > 95 | > 95 | > 300 | > 100 | > 100 | > 100 | > 100 | – | – | 90 |
| O=C(Nc1ccccc1)Nc1ccc(-n2nc3cc(Cl)c(Cl)cc3n2)cc1 [10e, 1-[4-(5,6-dichloro-2H-benzo[d][1,2,3]triazol-2-yl)phenyl]-3-phenylurea] | > 100 | > 100 | > 100 | > 100 | > 100 | > 100 | > 100 | > 290 | > 100 | > 100 | > 100 | > 100 | – | – | – |
| COc1ccc(NC(=O)Nc2ccc(-n3nc4cc(Cl)c(Cl)cc4n3)cc2)cc1 [10g, 1-[4-(5,6-dichloro-2H-benzo[d][1,2,3]triazol-2-yl)phenyl]-3-(4-methoxyphenyl)urea] | > 100 | > 100 | > 100 | > 100 | > 100 | > 100 | > 100 | > 290 | > 100 | > 100 | > 100 | > 100 | – | – | – |
| O=C(Nc1ccc(Cl)cc1)Nc1ccc(-n2nc3cc(Cl)c(Cl)cc3n2)cc1 [10h, 1-[4-(5,6-dichloro-2H-benzo[d][1,2,3]triazol-2-yl)phenyl]-3-(4-chlorophenyl)urea] | > 100 | > 100 | > 100 | > 100 | > 100 | > 100 | > 100 | > 290 | > 100 | > 100 | > 100 | > 100 | – | – | – |
| O=C(Nc1ccc(F)cc1)Nc1ccc(-n2nc3cc(Cl)c(Cl)cc3n2)cc1 [10i, 1-[4-(5,6-dichloro-2H-benzo[d][1,2,3]triazol-2-yl)phenyl]-3-(4-fluorophenyl)urea] | > 100 | > 100 | > 100 | > 100 | > 100 | > 100 | > 100 | > 290 | > 100 | > 100 | > 100 | > 100 | – | – | – |
